According to patent US11999727B2 (Tango Therapeutics, Inc., priority 2020, dated 2024):
Where two headings read alike, the source gives them in different places.

Key:
PRMT5 [1] = target: T1, PRMT5 (Homo sapiens, UniProt O14744); experiment: PRMT5 biochemical IC50 assay with MTA as cofactor; settings: PRMT5, MTA as cofactor; read-out: MTA IC50
T1 construct: purchased Viva (custom protein)

PRMT5 [2] = target: T1, PRMT5; experiment: PRMT5 biochemical IC50 assay with SAM as cofactor; settings: PRMT5, SAM as cofactor; read-out: SAM IC50
[3] = tested on: HAP1 MTAP-deleted cell line; experiment: Viability assay, MTAP-deleted cell line; format: cell-based; settings: Homo sapiens, HAP1, viability assay, read-out: HAP1 MTAP deleted viability
From the text: Table 1 additionally indicates IC50 values in a viability assay for the MTAP-deleted cell line (column 10), indicating the effect of treatment with compound on cell survival.

PRMT5 [4] = target: T1, PRMT5; experiment: PRMT5 biochemical IC50 assay with no cofactor; settings: PRMT5, no cofactor
From the text: Table 1 indicates IC50 values (μM) against PRMT5 for exemplary compounds in the presence of SAM as cofactor, with no cofactor, and with MTA as cofactor, respectively (columns 4-6). […] Ki values can be calculated from the IC50 values as described in the Examples section. As detailed in the Examples section, for the assay performed in the presence of SAM, IC50=Ki×1.5 (Ki=IC50/1.5).

[5] = read-out: No Cofactor/ rel IC50

T1 sequence (O14744 whole entry): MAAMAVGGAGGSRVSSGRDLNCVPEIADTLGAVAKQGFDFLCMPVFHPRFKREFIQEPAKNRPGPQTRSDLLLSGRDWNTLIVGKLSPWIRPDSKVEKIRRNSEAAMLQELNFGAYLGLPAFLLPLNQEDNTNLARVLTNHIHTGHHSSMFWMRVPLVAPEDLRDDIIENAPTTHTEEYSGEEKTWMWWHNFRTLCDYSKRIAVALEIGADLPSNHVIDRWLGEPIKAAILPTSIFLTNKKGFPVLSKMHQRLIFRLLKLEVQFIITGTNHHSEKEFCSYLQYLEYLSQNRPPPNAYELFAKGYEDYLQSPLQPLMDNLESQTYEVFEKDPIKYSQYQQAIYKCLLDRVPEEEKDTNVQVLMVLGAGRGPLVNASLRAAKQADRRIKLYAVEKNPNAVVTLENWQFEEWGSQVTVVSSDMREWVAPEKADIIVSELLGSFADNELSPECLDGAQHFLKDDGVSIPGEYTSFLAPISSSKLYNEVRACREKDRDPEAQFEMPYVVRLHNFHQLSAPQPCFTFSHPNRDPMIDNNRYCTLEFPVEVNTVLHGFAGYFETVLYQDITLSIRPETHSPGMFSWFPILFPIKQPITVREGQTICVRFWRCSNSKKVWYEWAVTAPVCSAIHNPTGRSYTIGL
T1 sequence (Q9BQA1 whole entry partner): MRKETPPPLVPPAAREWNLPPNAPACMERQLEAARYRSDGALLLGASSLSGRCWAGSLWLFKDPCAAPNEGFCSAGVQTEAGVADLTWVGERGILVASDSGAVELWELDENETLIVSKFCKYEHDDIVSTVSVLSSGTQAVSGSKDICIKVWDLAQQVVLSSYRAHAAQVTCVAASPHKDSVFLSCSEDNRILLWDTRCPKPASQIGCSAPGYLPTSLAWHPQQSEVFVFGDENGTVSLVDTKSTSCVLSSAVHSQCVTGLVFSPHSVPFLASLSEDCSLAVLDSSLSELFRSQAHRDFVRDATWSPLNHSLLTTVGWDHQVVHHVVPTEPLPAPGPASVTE

Row | IC50 (PRMT5 [1]) [nM] | IC50 (PRMT5 [2]) [nM] | IC50 (PRMT5 [4]; read-out: No Cofactor/rel IC50) [nM] | IC50 (PRMT5 [4]; [5]) [nM] | Compound | IC50 ([3]; MTAP-deleted cell line) [nM] | IC50 ([3]; HAP1 MTAP-deleted) [nM]
1 | 50 to 500 | 50 to 500 | 50 to 500 |  | C[C@H]1CC[C@H](c2ccc(N[C@H](C)C(=O)N(C)C)cc2)N(C(=O)C(=O)Nc2cncc(C(N)=O)c2)C1 (racemic) [Compound 414, 5-[[2-[(2R,5S)-2-[4-[[(1R)-2-(Dimethylamino)-1-methyl-2-oxo-ethyl]amino]phenyl]-5-methyl-1-piperidyl]-2-oxo-acetyl]amino]pyridine-3-carboxamide] | > 10000 | 
2 | 50 to 500 | 50 to 500 | 50 to 500 |  | C[C@@H]1CC[C@@H](c2cc(F)cc(F)c2)N(C(=O)C(=O)Nc2cncc(C(N)=O)c2)C1 (racemic) [Compound 416, rac-5-{2-[(2R,5S)-2-(3,5-Difluorophenyl)-5-methylpiperidin-1-yl]-2-oxoacetamido}pyridine-3-carboxamide] | 1000 to 10000 | 
3 | 50 to 500 | > 500 | > 500 |  | NC(=O)c1cncc(NC(=O)C(=O)N2CC[C@H]3C[C@@H](O)CC[C@@H]3C2)c1 (racemic) [Compound 418, 5-[2-(6-Hydroxy-decahydroisoquinolin-2-yl)-2-oxoacetamido]pyridine-3-carboxamide] | > 10000 | 
4 | 50 to 500 | > 500 | > 500 |  | NC(=O)c1cncc(NC(=O)C(=O)N2CC[C@@]3(O)CCCC[C@H]3C2)c1 (racemic) [Compound 421, 5-[2-(4a-Hydroxy-decahydroisoquinolin-2-yl)-2-oxoacetamido]pyridine-3-carboxamide] | > 10000 | 
5 | > 500 | > 500 | > 500 |  | Cc1cc(NC(=O)C(=O)N2C[C@H](C)CC[C@H]2C2CCNCC2)cnc1N (racemic) [Compound 708, N-(6-amino-5-methyl-3-pyridyl)-2-[(2R,5S)-5-methyl-2-(4-piperidyl)-1-piperidyl]-2-oxo-acetamide] |  | > 10000
6 | < 50 | 50 to 500 | 50 to 500 |  | Cc1cc(NC(=O)C(=O)N2C[C@H](C)CC[C@H]2c2ccc3c(cnn3C)c2)cnc1N (racemic) [Compound 922] | < 1000 | 
7 | > 500 | > 500 |  | > 500 | CC[C@H]1CC[C@@H](c2ccccc2)N(C(=O)C(=O)Nc2cncc(C)c2)C1 (single isomer, unassigned) [Compound 20] |  | 
8 | 50 to 500 | > 500 |  | > 500 | Cc1cc(NC(=O)C(=O)N2CCCC[C@@H]2c2cccnc2)cnc1N (single isomer, unassigned) [Compound 74] |  | 
9 | > 500 | > 500 |  | > 500 | Cc1cncc(NC(=O)C(=O)N2CC(C)CC[C@@H]2c2cccc(F)c2)c1 (single isomer, unassigned) [Compound 84] |  | 
10 | > 500 | > 500 |  | > 500 | C[C@@H]1CC[C@H](c2cccnc2)N(C(=O)C(=O)Nc2cncc(C(N)=O)c2)C1 (single isomer, unassigned) [Compound 98] |  | 
11 | > 500 | > 500 |  | > 500 | Cc1cc(NC(=O)C(=O)N2C[C@@H](C)CC[C@@H]2c2cccs2)cnc1N (single isomer, unassigned) [Compound 122] |  | 
12 | > 500 | > 500 |  | > 500 | C[C@@H]1CC[C@H](C2CCCCC2)N(C(=O)C(=O)Nc2cncc(C(N)=O)c2)C1 (single isomer, unassigned) [Compound 127] |  | 
13 | > 500 | > 500 |  | > 500 | C[C@@H]1CC[C@@H](C2CCCCC2)N(C(=O)C(=O)Nc2cncc(C(N)=O)c2)C1 (single isomer, unassigned) [Compound 130] |  | 
14 | > 500 | > 500 |  | > 500 | Cc1cc(NC(=O)C(=O)N2C[C@@H](C)CC[C@@H]2C2CCCCC2)cnc1N (single isomer, unassigned) [Compound 152] |  | 
15 | > 500 | > 500 | > 500 |  | C[C@H]1C[C@@H](C)[C@H](c2ccccc2)N(C(=O)C(=O)Nc2cncc(C(N)=O)c2)C1 (single isomer, unassigned) [Compound 275, 5-(2-(3,5-dimethyl-2-phenylpiperidin-1-yl)-2-oxoacetamido)nicotinamide] |  | 
16 | > 500 | > 500 | > 500 |  | C[C@@H]1C[C@@H](C)[C@@H](c2ccccc2)N(C(=O)C(=O)Nc2cncc(C(N)=O)c2)C1 (single isomer, unassigned) [Compound 286, 5-(2-(3,5-dimethyl-2-phenylpiperidin-1-yl)-2-oxoacetamido)nicotinamide] |  | 
17 | > 500 | > 500 | > 500 |  | Cc1cc(NC(=O)C(=O)N2C[C@H](C)[C@H](C)C[C@@H]2c2ccccc2)cnc1N (single isomer, unassigned) [Compound 299] |  | 
18 | > 500 | > 500 | > 500 |  | Cc1cc(NC(=O)C(=O)N2C[C@H](C)[C@@H](C)C[C@@H]2c2ccccc2)cnc1N (single isomer, unassigned) [Compound 305] |  | 
19 | > 500 | > 500 | > 500 |  | Cc1cc(NC(=O)C(=O)N2C[C@@H](C)CC[C@@H]2c2cccnc2)cnc1N (single isomer, unassigned) [Compound 309] |  | 
20 | > 500 | > 500 | > 500 |  | Cc1cc([C@H]2CC[C@H](C)CN2C(=O)C(=O)Nc2cncc(C(N)=O)c2)ccc1O (single isomer, unassigned) [Compound 330] |  | 
21 | > 500 | > 500 | > 500 |  | COc1ncc(NC(=O)C(=O)N2C[C@H](C)CC[C@H]2C2CCCCC2)cc1C(N)=O (single isomer, unassigned) [Compound 370] |  | 
22 | > 500 | > 500 | > 500 |  | Cc1cc(NC(=O)C(=O)N2C[C@@H](C)CC[C@@H]2c2cccc(N(C)C)c2)cnc1N (single isomer, unassigned) [Compound 387] |  | 
23 | > 500 | > 500 | > 500 |  | C[C@H]1CC[C@@H](c2ccc(O)nc2)N(C(=O)C(=O)Nc2cncc(C(N)=O)c2)C1 (single isomer, unassigned) [Compound 402] |  | 
24 | > 500 | > 500 | > 500 |  | Cc1ccc([C@H]2CC[C@H](C)CN2C(=O)C(=O)Nc2cncc(C(N)=O)c2)cn1 (single isomer, unassigned) [Compound 645] |  | 
25 | > 500 | > 500 | > 500 |  | C[C@@H]1CC[C@@H](c2ccc(C(F)(F)F)c(Cl)c2)N(C(=O)C(=O)Nc2cncc(C(N)=O)c2)C1 (single isomer, unassigned) [Compound 647] |  | 
26 | > 500 | > 500 | > 500 |  | C[C@@H]1CC[C@@H](c2cc(Cl)cc(C(F)(F)F)c2)N(C(=O)C(=O)Nc2cncc(C(N)=O)c2)C1 (single isomer, unassigned) [Compound 653] |  | 
27 | > 500 | > 500 | > 500 |  | Cc1cc(NC(=O)C(=O)N2C[C@H](C)CC[C@H]2c2ccc3c(c2)C(=O)NC3)cnc1N (single isomer, unassigned) [Compound 656] |  | 
